This note sets out measurements from PubChem BioAssay AID248 (DTP/NCI, 2004).

Molecules are shown by their SMILES. Values joined by “and” are separate entries in the source; they are usually repeats but may differ in a detail not shown here. Identical values can stand only once. Inconclusive results and toxic doses are left out. Peptide text beside a SMILES is read from it.

The assay deals with L1210 leukemia ip in BDF1 mice, survival T/C. Nature of the assay: NCI In Vivo Anticancer Drug Screen. Data for tumor model L1210 Leukemia (intraperitoneal) in B6D2F1 (BDF1) mice. The conditions noted are these: endpoint: mean survival time, higher = longer survival. Put shortly:
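Read-out is survival time, reported as the treated-group measurement over the vehicle-control measurement.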

Where [1] appears, read: dose: 100.0 mg/kg/injection, schedule: Q01DX001 (ip), vehicle: saline with Tween-80.
The mark [2] stands for this setting: dose: 200.0 mg/kg/injection, schedule: Q01DX001 (ip), vehicle: saline with Tween-80.
Where [3] appears, read: dose: 400.0 mg/kg/injection, schedule: Q01DX001 (ip), vehicle: saline with Tween-80.
The mark [4] stands for this setting: dose: 100.0 mg/kg/injection, schedule: Q01DX009 (ip), vehicle: saline with Tween-80.
Where [5] appears, read: dose: 100.0 mg/kg/injection, schedule: Q04DX003 (ip), vehicle: saline with Tween-80.
[6] abbreviates: dose: 200.0 mg/kg/injection, schedule: Q01DX009 (ip), vehicle: saline with Tween-80.
Setting [7] is: dose: 200.0 mg/kg/injection, schedule: Q04DX003 (ip), vehicle: saline with Tween-80.
Where [8] appears, read: dose: 400.0 mg/kg/injection, schedule: Q01DX009 (ip), vehicle: saline with Tween-80.
Where [9] appears, read: dose: 400.0 mg/kg/injection, schedule: Q04DX003 (ip), vehicle: saline with Tween-80.
Setting [10] is: dose: 100.0 mg/kg/injection, schedule: Q01DX001 (ip), vehicle: other.
[11] abbreviates: dose: 200.0 mg/kg/injection, schedule: Q01DX001 (ip), vehicle: other.

On to `CN(CCOS(=O)(=O)O)CCOS(=O)(=O)O`, for which the T/C was 98 % of control (dose: 37.5 mg/kg/injection, schedule: Q01DX009 (ip), vehicle: saline); 98 % of control (dose: 75.0 mg/kg/injection, schedule: Q01DX009 (ip), vehicle: saline); 102 % of control (dose: 75.0 mg/kg/injection, schedule: Q04DX003 (ip), vehicle: saline); 95 % of control (dose: 150.0 mg/kg/injection, schedule: Q01DX009 (ip), vehicle: saline); 100 % of control (dose: 150.0 mg/kg/injection, schedule: Q04DX003 (ip), vehicle: saline); 96 % of control (dose: 300.0 mg/kg/injection, schedule: Q04DX003 (ip), vehicle: saline).

With `NC(CCC(=O)O)C(=O)NC(CO)C(=O)O` (stereo not drawn) (H-Glu-Ser-OH; configuration not given here), the T/C under setting [1] is 92 % of control and the T/C under setting [2] was 89 % of control.

Turning to `COC(=O)CCC(C)C1CCC2C3C(O)CC4CC(OC(C)=O)CCC4(C)C3CC(O)C12C` (stereo not drawn), the T/C (dose: 50.0 mg/kg/injection, schedule: Q01DX009 (ip), vehicle: carboxymethylcellulose (CMC)) was 102 % of control and 103 % of control; the T/C (dose: 50.0 mg/kg/injection, schedule: Q04DX003 (ip), vehicle: carboxymethylcellulose (CMC)) is 95 % of control; the T/C (dose: 100.0 mg/kg/injection, schedule: Q01DX009 (ip), vehicle: carboxymethylcellulose (CMC)) was 95 % of control and 98 % of control; the T/C (dose: 100.0 mg/kg/injection, schedule: Q04DX002 (ip), vehicle: carboxymethylcellulose (CMC)) was 96 % of control and 101 % of control; the T/C (dose: 100.0 mg/kg/injection, schedule: Q04DX003 (ip), vehicle: carboxymethylcellulose (CMC)) was 95 % of control; the T/C (dose: 200.0 mg/kg/injection, schedule: Q01DX009 (ip), vehicle: carboxymethylcellulose (CMC)) was 88 % of control and 92 % of control. Besides, the T/C was 96 % of control and 91 % of control (dose: 200.0 mg/kg/injection, schedule: Q04DX002 (ip), vehicle: carboxymethylcellulose (CMC)); 88 % of control (dose: 200.0 mg/kg/injection, schedule: Q04DX003 (ip), vehicle: carboxymethylcellulose (CMC)); 86 % of control and 91 % of control (dose: 400.0 mg/kg/injection, schedule: Q04DX002 (ip), vehicle: carboxymethylcellulose (CMC)).

On to `O=C(NCCCCCCCCNC(=O)Nc1ccc(C2=NCCN2)cc1)Nc1ccc(C2=NCCN2)cc1`, for which the T/C reads like this: (dose: 25.0 mg/kg/injection, schedule: Q01DX Z (ip), vehicle: carboxymethylcellulose (CMC)) 117 % of control; (dose: 62.0 mg/kg/injection, schedule: Q01DX Z (ip), vehicle: carboxymethylcellulose (CMC)) 151 % of control; (dose: 62.0 mg/kg/injection, schedule: Q01DX Z (oral), vehicle: carboxymethylcellulose (CMC)) 103 % of control; (dose: 100.0 mg/kg/injection, schedule: Q01DX Z (ip), vehicle: carboxymethylcellulose (CMC)) 187 % of control; (dose: 125.0 mg/kg/injection, schedule: Q01DX Z (ip), vehicle: carboxymethylcellulose (CMC)) 157 % of control; (dose: 125.0 mg/kg/injection, schedule: Q01DX Z (oral), vehicle: carboxymethylcellulose (CMC)) 111 % of control. Moreover, the T/C runs as follows: (dose: 150.0 mg/kg/injection, schedule: Q01DX Z (ip), vehicle: carboxymethylcellulose (CMC)) 213 % of control; (dose: 250.0 mg/kg/injection, schedule: Q01DX Z (ip), vehicle: carboxymethylcellulose (CMC)) 114 % of control; (dose: 250.0 mg/kg/injection, schedule: Q01DX Z (oral), vehicle: carboxymethylcellulose (CMC)) 109 % of control; (dose: 500.0 mg/kg/injection, schedule: Q01DX Z (oral), vehicle: carboxymethylcellulose (CMC)) 120 % of control.

On to `COc1ccc(CCN(C)C2c3ccccc3C=Cc3ccccc32)cc1OC`, for which the T/C was 103 % of control under setting [1], 107 % of control under setting [2] and 98 % of control under setting [3].

Turning to `NC(=O)c1ccnn1C1OC(CO)C(O)C1O` (stereo not drawn), the T/C is, setting by setting: (dose: 50.0 mg/kg/injection, schedule: Q01DX005 (ip), vehicle: water) 102 % of control; (dose: 100.0 mg/kg/injection, schedule: Q01DX005 (ip), vehicle: water) 102 % of control; (dose: 200.0 mg/kg/injection, schedule: Q01DX005 (ip), vehicle: water) 105 % of control.

As to `CCN(CC)C(=O)c1ccc(COc2cc(Cl)cc(Cl)c2)cc1`, the T/C runs as follows: (dose: 100.0 mg/kg/injection, schedule: Q01DX009 (ip), vehicle: Klucel (hydroxypropylcellulose) (HPC)) 94 % of control; (dose: 200.0 mg/kg/injection, schedule: Q01DX009 (ip), vehicle: Klucel (hydroxypropylcellulose) (HPC)) 97 % of control; (dose: 400.0 mg/kg/injection, schedule: Q01DX009 (ip), vehicle: Klucel (hydroxypropylcellulose) (HPC)) 96 % of control.

In the case of `COc1cccc(OC)c1OC(=O)NS(=O)(=O)c1ccc(Cl)cc1`, the T/C reads like this: under setting [4], 116 % of control; under setting [5], 104 % of control; under setting [6], 98 % of control; under setting [7], 97 % of control; under setting [8], 106 % of control; under setting [9], 103 % of control.

Turning to `Cc1ccc(S(=O)(=O)Nc2ccc(C#N)c3ccccc23)cc1`, the T/C by setting is: under setting [4], 92 % of control; under setting [5], 90 % of control; under setting [6], 89 % of control; under setting [7], 95 % of control; under setting [8], 89 % of control; under setting [9], 87 % of control.

With `O=c1ccc2c([N+](=O)[O-])cc([N+](=O)[O-])c(O)c2[nH]1`, the T/C (dose: 100.0 mg/kg/injection, schedule: Q01DX001 (ip), vehicle: saline) was 101 % of control and the T/C (dose: 200.0 mg/kg/injection, schedule: Q01DX001 (ip), vehicle: saline) was 101 % of control.

Regarding `O=c1cc(CN(CCO)CCO)[nH]c(=O)[nH]1`, the T/C runs as follows: (dose: 100.0 mg/kg/injection, schedule: Q04DX003 (ip), vehicle: saline) 93 % of control; (dose: 200.0 mg/kg/injection, schedule: Q04DX003 (ip), vehicle: saline) 95 % of control; (dose: 400.0 mg/kg/injection, schedule: Q04DX003 (ip), vehicle: saline) 93 % of control.

For the compound `CN1C(=O)C(Br)C(Br)c2ccccc21` (stereo not drawn), the T/C by setting is: under setting [10], 107 % of control; under setting [11], 102 % of control.

Regarding `C/C=C/C[P+](c1ccccc1)(c1ccccc1)c1ccccc1`, the T/C is 98 % of control (dose: 3.13 mg/kg/injection, schedule: Q01DX009 (ip), vehicle: saline); 110 % of control (dose: 6.25 mg/kg/injection, schedule: Q01DX009 (ip), vehicle: saline); 106 % of control (dose: 12.5 mg/kg/injection, schedule: Q01DX009 (ip), vehicle: saline with Tween-80); 98 % of control (dose: 12.5 mg/kg/injection, schedule: Q01DX009 (ip), vehicle: saline); 101 % of control (dose: 15.0 mg/kg/injection, schedule: Q01DX001 (ip), vehicle: saline); 114 % of control (dose: 30.0 mg/kg/injection, schedule: Q01DX001 (ip), vehicle: saline).

Turning to `CC(C)(c1ccccc1)C(C(=O)O)C(=O)O`, the T/C is 98 % of control (dose: 75.0 mg/kg/injection, schedule: Q01DX001 (ip), vehicle: saline); 98 % of control (dose: 150.0 mg/kg/injection, schedule: Q01DX001 (ip), vehicle: saline); 102 % of control (dose: 300.0 mg/kg/injection, schedule: Q01DX001 (ip), vehicle: saline).

As for `CCOC(=O)c1cc([N+](=O)[O-])ccc1N=Nc1cc(OC)c(N)cc1OC`, the T/C is, setting by setting: under setting [10], 111 % of control; under setting [11], 103 % of control; (dose: 400.0 mg/kg/injection, schedule: Q01DX001 (ip), vehicle: other) 103 % of control.

In the case of `Nc1ncnc(N)c1NC(=O)Cc1ccccc1`, the T/C was 98 % of control under setting [1], 97 % of control under setting [2] and 98 % of control under setting [3].

As for `O=C(O)CCC(c1ccccc1)(c1ccccc1)c1ccccc1`, the T/C (dose: 100.0 mg/kg/injection, schedule: Q01DX001 (ip), vehicle: carboxymethylcellulose (CMC)) is 95 % of control; the T/C (dose: 200.0 mg/kg/injection, schedule: Q01DX001 (ip), vehicle: carboxymethylcellulose (CMC)) was 95 % of control; the T/C (dose: 400.0 mg/kg/injection, schedule: Q01DX001 (ip), vehicle: carboxymethylcellulose (CMC)) was 101 % of control.
